# T1: TbSTT3A (Trypanosoma brucei, UniProt Q57W34)
# T1 sequence (Q57W34 1-801): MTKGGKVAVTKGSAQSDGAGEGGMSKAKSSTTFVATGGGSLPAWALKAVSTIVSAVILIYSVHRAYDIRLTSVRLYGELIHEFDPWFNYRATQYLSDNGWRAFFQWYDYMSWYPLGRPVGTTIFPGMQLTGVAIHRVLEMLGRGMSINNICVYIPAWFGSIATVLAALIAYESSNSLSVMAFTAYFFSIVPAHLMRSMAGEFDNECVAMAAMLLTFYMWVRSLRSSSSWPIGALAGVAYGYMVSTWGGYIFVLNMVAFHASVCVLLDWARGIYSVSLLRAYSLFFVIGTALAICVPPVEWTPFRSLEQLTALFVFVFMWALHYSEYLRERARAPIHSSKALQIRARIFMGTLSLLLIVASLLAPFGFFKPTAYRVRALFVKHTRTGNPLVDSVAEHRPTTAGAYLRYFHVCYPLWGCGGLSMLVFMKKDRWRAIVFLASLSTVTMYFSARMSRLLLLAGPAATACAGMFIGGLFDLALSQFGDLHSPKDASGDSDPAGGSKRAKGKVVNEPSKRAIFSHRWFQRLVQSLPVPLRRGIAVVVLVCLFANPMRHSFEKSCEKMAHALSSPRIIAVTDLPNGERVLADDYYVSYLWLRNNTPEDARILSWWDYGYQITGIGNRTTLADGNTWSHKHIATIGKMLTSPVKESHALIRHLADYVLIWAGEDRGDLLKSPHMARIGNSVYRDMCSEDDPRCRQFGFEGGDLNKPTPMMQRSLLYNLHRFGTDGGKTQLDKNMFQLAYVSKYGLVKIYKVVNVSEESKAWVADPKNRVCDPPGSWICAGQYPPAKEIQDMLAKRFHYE
# B1: TbSTT3A (Trypanosoma brucei brucei TREU927) (protein)
# chain: T1 sequence (Q57W34 1-801)
# How the values were obtained:
# bacterial flippase PglK = tested on: bacterial flippase PglK; design: method as in Perez et al. 2015; details: in detergent; ref Perez et al. 2015; cited from earlier work
# PglB = PglB (Campylobacter lari, UniProt B9KDD4); experiment: In vitro substrate test with PglB; format: biochemical; details: data not shown
# Chain of PglB (B9KDD4 whole entry): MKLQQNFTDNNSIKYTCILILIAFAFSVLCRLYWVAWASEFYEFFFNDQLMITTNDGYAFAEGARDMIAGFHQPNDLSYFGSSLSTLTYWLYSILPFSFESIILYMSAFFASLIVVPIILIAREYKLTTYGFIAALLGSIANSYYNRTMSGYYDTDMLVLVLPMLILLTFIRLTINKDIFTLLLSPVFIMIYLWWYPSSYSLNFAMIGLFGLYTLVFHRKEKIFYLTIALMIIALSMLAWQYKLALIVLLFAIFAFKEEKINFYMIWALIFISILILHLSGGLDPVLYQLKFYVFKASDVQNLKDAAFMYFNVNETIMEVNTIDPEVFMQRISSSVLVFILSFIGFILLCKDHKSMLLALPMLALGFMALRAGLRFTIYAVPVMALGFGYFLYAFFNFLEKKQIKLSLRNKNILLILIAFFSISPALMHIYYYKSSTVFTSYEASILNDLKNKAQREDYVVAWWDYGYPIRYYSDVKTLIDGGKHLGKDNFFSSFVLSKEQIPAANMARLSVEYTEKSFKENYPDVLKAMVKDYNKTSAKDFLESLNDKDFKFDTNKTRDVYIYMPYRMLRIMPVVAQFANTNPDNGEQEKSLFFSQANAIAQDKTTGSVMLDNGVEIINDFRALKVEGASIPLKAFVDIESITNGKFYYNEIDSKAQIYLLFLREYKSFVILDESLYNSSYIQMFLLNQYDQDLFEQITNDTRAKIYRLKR
# TbSTT3A = target: T1, TbSTT3A; experiment: In vitro glycosylation assay, turnover rate of acceptor peptides (Tricine SDS-PAGE fluorescence); format: biochemical; details: 50 µM donor, overnight incubation, vast excess substrate
# Description: Fig. 2. Optimization of the acceptor peptide sequence. (A) Synthetic acceptor peptides are shown in single letter code. The acceptor asparagine (zero position of the sequon) is indicated in red. Glycosylation experiments were performed and the fluorescently labeled substrate (G0) and product (G1) were quantified following Tricine SDS-PAGE analysis. (B) Turnover rates after fitting the time points by linear regression using PRISM. Error bars indicate standard error of the fitting. (C) Kinetic analysis of substrate peptides: glycosylation experiments were performed with 20 nM purified TbSTT3A, 50 µM farnesyl-PP-chitobiose, 10 mM MnCl2, 150 mM NaCl, 20 mM Hepes pH 7.5, 0.035% DDM, 0.007% CHS and different concentrations of peptides varying from 2 to 60 µM. Data points reflect the mean of three separate measurements. Error bars indicate standard deviations. Data were fitted by nonlinear regression according to the Michaelis–Menten formula using PRISM. This figure is available in black and white in print and in color at Glycobiology online.
# Reaction mixtures contained 20 nM purified TbSTT3A protein, 50µM farnesyl-PP-GlcNAc or farnesyl-PP-chitobiose, 10 mM MnCl2, 150 mM NaCl, 20 mM Hepes pH 7.5, 0.035% DDM, 0.007% CHS and 20 µM of the peptide. Reactions were incubated at 30°C. Samples were taken at different time points and reactions were stopped by the addition of 4X SDS Laemmli buffer. Samples were diluted 200-fold prior to analysis by Tricine SDS-PAGE consisting of a 16% resolving gel with 6 M urea, a 10% spacer gel and a 4% stacking gel ([Schägger 2006]). Fluorescent bands for peptide and glycopeptide were visualized by using a Typhoon Trio Plus imager (GE Healthcare) with excitation set at 488 nm and using a 526 nm SP emission filter. The amount of formed glycopeptide was determined from band intensities of fluorescence gel scans (ImageJ) ([Gerber et al. 2013]). Turnover rate determination was performed by fitting of the data to linear regression using PRISM software.
# Supplementary Figure 2: Glycosylation Assays with farnesyl-PP-GlcNAc. In vitro glycosylation experiments were performed with 20nM purified TbStt3A purified protein, 50µM Farnesyl-PP-GlcNAc or Farnesyl-PP-GlcNac2, 10 mM MnCl2, 150 mM NaCl, 20 mM Hepes pH 7.5, 0.035% DDM, 0.007% CHS and 10 µM of the peptide P1.
# [1] = tested on: octa-subunit OST complex from yeast; design: method as in Tai and Imperiali 2001; details: ref Tai and Imperiali 2001; cited from earlier work
# [2] = tested on: octa-subunit OST complex from pig liver; design: method as in Bause et al. 1995; details: ref Bause et al. 1995; cited from earlier work
# [3] = substrate: CC(=O)N[C@H]1[C@@H](OP(=O)(O)OP(=O)(O)OC/C=C(\C)CC/C=C(\C)CCC=C(C)C)O[C@H](CO)[C@@H](O[C@@H]2O[C@H](CO)[C@@H](O)[C@H](O)[C@H]2NC(C)=O)[C@@H]1O; experiment: Michaelis-Menten kinetics of the LLO analogs; format: biochemical, Trypanosoma brucei; details: other: 20 nM TbSTT3A, 10 µM acceptor peptide, varying LLO analog concentration; pH 7.5
# Description: (§1) Fig. 3. (A) Structure of the LLO analogs synthesized (1a) (S)-Citronellyl-PP-Chitobiose, C10; (1b) farnesyl-PP-chitobiose, C15; (1c) (S)-NerylCitronellyl-PP-chitobiose, C20; (1d) (S)-farnesylCitronellyl-PP-chitobiose, C25. (B) Kinetic analysis of synthetic LLO analogs. Glycosylation experiments were performed with 20 nM purified TbSTT3A, 10 µM […], 10 mM MnCl2, 150 mM NaCl, 20 mM Hepes pH 7.5, 0.035% DDM, 0.007% CHS and different concentrations of synthetic LLO analogs. Data points reflect the mean of 3 separate measurements. Error bars indicate standard deviations. Data were fitted by nonlinear regression according to the Michaelis–Menten formula using PRISM software. This figure is available in black and white in print and in color at Glycobiology online.
# (§2) For Michaelis–Menten kinetics of the LLO analogs, reaction mixtures containing 20 nM TbSTT3A protein, 10 µM peptide P11, 10 mM MnCl2, 150 mM NaCl, 20 mM Hepes pH 7.5, 0.035% DDM and 0.007% CHS were incubated with different concentrations of LLO analogs (10–900 µM, for 1a; 2–60 µM, for 1b; 1–50 µM, for 1c and 1–20 µM, for 1d). Samples were taken at different time points and turnover rates of the reactions were determined as before. Data were fitted by nonlinear regression according to the Michaelis–Menten formula using PRISM software.
# [4] = substrate: [H][C@@]1(O[C@H]2[C@H](O)[C@@H](NC(C)=O)[C@@H](OP(=O)(O)OP(=O)(O)OCC[C@@H](C)CCC=C(C)C)O[C@@H]2CO)O[C@H](CO)[C@@H](O)[C@H](O)[C@H]1NC(C)=O; experiment: Michaelis-Menten kinetics of the LLO analogs; format: biochemical, Trypanosoma brucei; details: other: 20 nM TbSTT3A, 10 µM acceptor peptide, varying LLO analog concentration; pH 7.5
# Description: as §1, §2
# [5] = substrate: CC(=O)NC1C(OC2C(CO)OC(OP(=O)(O)OP(=O)(O)OCCC(C)CCC=C(C)CCC=C(C)CCC=C(C)C)C(NC(C)=O)C2O)OC(CO)C(O)C1O; experiment: Michaelis-Menten kinetics of the LLO analogs; format: biochemical, Trypanosoma brucei; details: other: 20 nM TbSTT3A, 10 µM acceptor peptide, varying LLO analog concentration; pH 7.5
# Description: as §1, §2
# [6] = substrate: CC(=O)N[C@H]1[C@@H](OP(=O)(O)OP(=O)(O)OCC[C@@H](C)CC/C=C(/C)CC/C=C(\C)CC/C=C(\C)CCC=C(C)C)O[C@H](CO)[C@@H](O[C@@H]2O[C@H](CO)[C@@H](O)[C@H](O)[C@H]2NC(C)=O)[C@@H]1O; experiment: Michaelis-Menten kinetics of the LLO analogs; format: biochemical, Trypanosoma brucei; details: other: 20 nM TbSTT3A, 10 µM acceptor peptide, varying LLO analog concentration; pH 7.5
# Description: as §1, §2
molecule,measurement,setting,value
"CC(=O)NC1C(OP(=O)(O)OP(=O)(O)OCC=C(C)CCC=C(C)CCC=C(C)C)OC(CO)C(O)C1O (stereo not shown) [farnesyl-PP-GlcNAc, reference compound]",Effect on ATPase activity of PglK,bacterial flippase PglK,stimulated ATPase activity
same,In vitro substrate of PglB,PglB,accepted as an in vitro substrate
same,Donor substrate for TbSTT3A (glycopeptide product formation),TbSTT3A,no glycopeptide product was observed
same,Donor substrate for TbSTT3A (glycopeptide product formation),TbSTT3A; listed as farnesyl-PP-GlcNac,not recognized as a substrate
Dol-PP-GlcNAc,Recognition as donor substrate in vitro,[1],poor donor
same,Recognition as donor substrate in vitro,[2],poor donor
B1,Km,[3],5.6 ± 0.8 µM
same,Km,[4],95 ± 18 µM
same,Km,[5],5.3 ± 0.9 µM
same,Km,[6],2.5 ± 0.3 µM

# From paper PMC5421464, “Characterization of the single-subunit oligosaccharyltransferase STT3A from Trypanosoma brucei using synthetic peptides and lipid-linked oligosaccharide analogs” (Glycobiology, 2017)
